Legend:
Assay type in all cases: in vivo
[1] = tested on: Bemisia tabaci (Cotton White Fly); experiment: Activity against Bemisia tabaci (cotton white fly), sprayed cotton leaf discs; settings: foliar, 144 h, application rate 200 ppm, adult white flies, 6 days after incubation
Procedure: Example B1: Activity Against Bemisia tabaci (Cotton White Fly)
Cotton leaf discs were placed on agar in 24-well microtiter plates and sprayed with aqueous test solutions prepared from 10,000 ppm DMSO stock solutions. After drying the leaf discs were infested with adult white flies. The samples were checked for mortality 6 days after incubation.

[2] = tested on: Spodoptera littoralis (Egyptian Cotton Leaf Worm); experiment: Activity against Spodoptera littoralis (Egyptian cotton leaf worm), sprayed cotton leaf discs; settings: foliar, 72 h, application rate 200 ppm, L1 larvae, 3 days after infestation
Procedure, shortened: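 Leaf discs on agar were sprayed with aqueous solutions prepared from 10,000 ppm DMSO stock, dried, then infested with five L1 larvae. Mortality, anti-feeding and growth inhibition were scored against untreated discs 3 days after infestation. Control was recorded when any one category exceeded the untreated sample.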

[3] = tested on: Carpocapsa (Cydia) Pomonella (Codling Moth); experiment: Activity against Carpocapsa (Cydia) pomonella (codling moth), sprayed diet cubes; settings: 336 h, application rate 12.5 ppm, L1 larvae, 14 days after infestation, read-out: effect in at least one of the two categories (mortality or growth inhibition)
Procedure, shortened: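 Paraffin-coated diet cubes were sprayed with test solutions at 12.5 ppm, dried, and infested with one L1 larva each (10 replicates). After incubation at 26–27 °C, mortality and growth inhibition were scored 14 days after infestation.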

[4] = tested on: Chilo suppressalis (Striped Rice Stemborer); experiment: Activity against Chilo suppressalis (striped rice stemborer), treated artificial diet; settings: 144 h, application rate 200 ppm, L2 larvae, 6 days after infestation
Procedure, shortened: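 Artificial diet treated with aqueous test solutions made from 10,000 ppm DMSO stocks, dried, then infested with L2 larvae, 6-8 per well. Mortality, anti-feeding effect and growth inhibition scored versus untreated samples 6 days after infestation; control counted when any one category exceeds the untreated sample.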

[5] = tested on: Euschistus heros (Neotropical Brown Stink Bug); experiment: Activity against Euschistus heros (neotropical brown stink bug), sprayed soybean leaves; settings: 120 h, application rate 200 ppm, N2 nymphs, 5 days after infestation, read-out: effect in at least one of the two categories (mortality or growth inhibition)
Procedure: Example B3: Activity Against Euschistus heros (Neotropical Brown Stink Bug)
Soybean leaves on agar in 24-well microtiter plates were sprayed with aqueous test solutions prepared from 10,000 ppm DMSO stock solutions. After drying the leaves were infested with N2 nymphs. The samples were assessed for mortality and growth inhibition in comparison to untreated samples 5 days after infestation.

[6] = tested on: Plutella xylostella (Diamond Back Moth); experiment: Activity against Plutella xylostella (diamond back moth), treated artificial diet; settings: 192 h, application rate 200 ppm, eggs, 8 days after infestation, read-out: effect in at least one of the two categories (mortality or growth inhibition)
Procedure, shortened: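 Artificial diet treated with aqueous test solutions made from 10,000 ppm DMSO stocks, dried, then infested with Plutella eggs. Mortality and growth inhibition scored against untreated samples 8 days after infestation.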

[7] = tested on: Frankliniella occidentalis (Western Flower Thrips); experiment: Activity against Frankliniella occidentalis (western flower thrips), sprayed sunflower leaf discs; settings: foliar, 168 h, application rate 200 ppm, population of mixed ages, 7 days after infestation
Procedure: Example B4: Activity Against Frankliniella occidentalis (Western Flower Thrips)
(§1) Sunflower leaf discs were placed on agar in 24-well microtiter plates and sprayed with aqueous test solutions prepared from 10,000 ppm DMSO stock solutions. After drying the leaf discs were infested with a Frankliniella population of mixed ages. The samples were assessed for mortality 7 days after infestation.

[8] = tested on: Diabrotica balteata (Corn Root Worm); experiment: Activity against Diabrotica balteata (corn root worm), corn seedlings on filter paper in cups; settings: 120 h, application rate 3 ppm, L2 larva, 5 days after treatment, read-out: effect in at least one of the two categories (mortality or growth inhibition)
Procedure: Example B12: Activity Against Diabrotica Balteata (Corn Root Worm)
Three corn seedlings were placed on wetted filter paper in plastic cups, and 3 ml of diluted test solutions were pipetted onto them. The cups were infested with 10 L2 larva and checked for mortality and growth regulation 5 days after treatment.

[9] = tested on: Myzus persicae (Green Peach Aphid); experiment: Activity against Myzus persicae (green peach aphid), feeding/contact activity; settings: 144 h, application rate 200 ppm, mixed ages, 6 days after infestation
Procedure: Example B6: Activity Against Myzus persicae (Green Peach Aphid) Feeding/Contact Activity
Sunflower leaf discs were placed onto agar in a 24-well microtiter plate and sprayed with aqueous test solutions prepared from 10,000 ppm DMSO stock solutions. After drying, the leaf discs were infested with an aphid population of mixed ages. The samples were assessed for mortality 6 days after infestation.

[10] = tested on: Diabrotica balteata (Corn Root Worm); experiment: Activity against Diabrotica balteata (corn root worm), sprayed maize sprouts on agar; settings: 96 h, application rate 200 ppm, L2 larvae, 4 days after infestation, read-out: effect in at least one of the two categories (mortality or growth inhibition)
Procedure: Example B2: Activity Against Diabrotica balteata (Corn Root Worm)
Maize sprouts placed onto an agar layer in 24-well microtiter plates were treated with aqueous test solutions prepared from 10,000 ppm DMSO stock solutions by spraying. After drying, the plates were infested with L2 larvae (6 to 10 per well). The samples were assessed for mortality and growth inhibition in comparison to untreated samples 4 days after infestation.

[11] = tested on: Tetranychus urticae (Two-Spotted Spider Mite); experiment: Activity against Tetranychus urticae (two-spotted spider mite), sprayed bean leaf discs; settings: foliar, 192 h, application rate 200 ppm, mixed population (mobile stages), 8 days after infestation
Procedure: Example B9: Activity Against Tetranychus urticae (Two-Spotted Spider Mite)
as §1, with “Bean” for “Sunflower”, “discs” for “discs were placed”, “were” for “and”, “mite” for “Frankliniella”, “on mixed population (mobile stages) 8” for “7”

[12] = tested on: Myzus persicae (Green Peach Aphid); experiment: Activity against Myzus persicae (green peach aphid), systemic activity; settings: 144 h, test rate 24 ppm, roots of pea seedlings in test solution, 6 days
Procedure: Example B8: Activity Against Myzus persicae (Green Peach Aphid) Systemic Activity
Roots of pea seedlings infested with an aphid population of mixed ages were placed directly into aqueous test solutions prepared from 10,000 ppm DMSO stock solutions. The samples were assessed for mortality 6 days after placing seedlings into test solutions.

CCS(=O)(=O)c1c(N2Cc3ncc(C(F)(F)F)cc3C2=O)nc2ccc(OC(F)F)cn12 [Compound P10, 6-[6-(difluoromethoxy)-3-ethylsulfonyl-imidazo[1,2-a]pyridin-2-yl]-3-(trifluoromethyl)-7H-pyrrolo[3,4-b]pyridin-5-one]
≥ 80%: mortality at 200 ppm [1] | percent control (mortality, anti-feedant effect or growth inhibition) at 200 ppm [2] | percent effect (mortality or growth inhibition) at 12.5 ppm [3] | percent control (mortality, anti-feedant effect or growth inhibition) at 200 ppm [4] | percent effect (mortality or growth inhibition) at 200 ppm [5] | percent effect (mortality or growth inhibition) at 200 ppm [6] | mortality at 200 ppm [7] | percent effect (mortality or growth inhibition) at 3 ppm [8] | mortality at 200 ppm [9] | percent effect (mortality or growth inhibition) at 200 ppm [10] | mortality at 200 ppm [11]

CCS(=O)(=O)c1c(N2Cc3ncc(C(F)(F)F)cc3C2=O)nc2cc(OC)ccn12 [Compound P13, 6-(3-ethylsulfonyl-7-methoxy-imidazo [1,2-a]pyridin-2-yl)-3-(trifluoromethyl)-7H-pyrrolo[3,4-b] pyridin-5-one]
≥ 80%: mortality at 24 ppm [12] | percent control (mortality, anti-feedant effect or growth inhibition) at 200 ppm [2] | percent effect (mortality or growth inhibition) at 200 ppm [6] | mortality at 200 ppm [9] | percent effect (mortality or growth inhibition) at 200 ppm [10]

CCS(=O)(=O)c1c(N2Cc3ccc(OC(F)(F)F)cc3C2=O)nc2ccc(C(C)(F)F)cn12 [Compound P17, 2-[6-(1,1-difluoroethyl)-3-ethylsulfonyl-imidazo[1,2-a]pyridin-2-yl]-6-(trifluoromethoxy) isoindolin-1-one]
≥ 80%: mortality at 200 ppm [1] | percent control (mortality, anti-feedant effect or growth inhibition) at 200 ppm [2] | percent effect (mortality or growth inhibition) at 12.5 ppm [3] | percent control (mortality, anti-feedant effect or growth inhibition) at 200 ppm [4] | percent effect (mortality or growth inhibition) at 200 ppm [5] | percent effect (mortality or growth inhibition) at 200 ppm [6] | mortality at 200 ppm [7] | percent effect (mortality or growth inhibition) at 3 ppm [8] | mortality at 200 ppm [9] | percent effect (mortality or growth inhibition) at 200 ppm [10] | mortality at 200 ppm [11]

CCS(=O)(=O)c1c(N2Cc3ncc(C(F)(F)F)cc3C2=O)nc2cc(C)ccn12 [Compound P23, 6-(3-ethylsulfonyl-7-methyl-imidazo[1,2-a]pyridin-2-yl)-3-(trifluoromethyl)-7H-pyrrolo[3,4-b]pyridin-5-one]
≥ 80%: mortality at 24 ppm [12] | percent control (mortality, anti-feedant effect or growth inhibition) at 200 ppm [2] | percent control (mortality, anti-feedant effect or growth inhibition) at 200 ppm [4] | percent effect (mortality or growth inhibition) at 200 ppm [6] | mortality at 200 ppm [9] | percent effect (mortality or growth inhibition) at 200 ppm [10]

CCS(=O)(=O)c1c(N2Cc3ncc(C(F)(F)F)cc3C2=O)nc2ccc(C(C)(C)C#N)cn12 [Compound P35, 2-[3-ethylsulfonyl-2-[5-oxo-3-(trifluoromethyl)-7H-pyrrolo[3,4-b]pyridin-6-yl]imidazo[1,2-a]pyridin-6-yl]-2-methyl-propanenitrile]
≥ 80%: mortality at 200 ppm [1] | percent control (mortality, anti-feedant effect or growth inhibition) at 200 ppm [2] | percent effect (mortality or growth inhibition) at 12.5 ppm [3] | percent control (mortality, anti-feedant effect or growth inhibition) at 200 ppm [4] | percent effect (mortality or growth inhibition) at 200 ppm [5] | percent effect (mortality or growth inhibition) at 200 ppm [6] | mortality at 200 ppm [7] | percent effect (mortality or growth inhibition) at 3 ppm [8] | mortality at 200 ppm [9] | percent effect (mortality or growth inhibition) at 200 ppm [10] | mortality at 200 ppm [11]

CCS(=O)(=O)c1c(N2Cc3ncc(C(F)(F)F)cc3C2=O)nc2ccc(NC(C)=O)cn12 [Compound P36, N-[3-ethylsulfonyl-2-[5-oxo-3-(trifluoromethyl)-7H-pyrrolo[3,4-b]pyridin-6-yl]imidazo[1,2-a]pyridin-6-yl]acetamide]
≥ 80%: mortality at 24 ppm [12] | percent control (mortality, anti-feedant effect or growth inhibition) at 200 ppm [2] | percent control (mortality, anti-feedant effect or growth inhibition) at 200 ppm [4] | percent effect (mortality or growth inhibition) at 200 ppm [6] | mortality at 200 ppm [9] | percent effect (mortality or growth inhibition) at 200 ppm [10]

— patent publication US12696901B2, “Pesticidally active heterocyclic derivatives with sulfur containing substituents” (SYNGENTA CROP PROTECTION AG, priority 2020, dated 2026)
